The source of these data is US4931462A, “Heterocyclic substituted alkylsulphonamides pharmaceutical compositions containing them, and arterial disease treatment therewith” (Boehringer Mannheim GmbH, priority 1987, dated 1990).

The subject of test [1] is U 46619-induced pulmonary embolism. Put plainly: Preventing the U 46619-induced pulmonary embolism (survival rate of mouse). The conditions noted are these: lethal U 46619 (800-1000 μg/kg) into tail vein after 4 hours, survivors/animals used; for Survival Rate of Mouse 25 mg/kg, 4 h: 25 mg/kg by stomach tube in 1% methylcellulose; for Survival Rate of Mouse 1 mg/kg, 4 h: 1 mg/kg by stomach tube in 1% methylcellulose. The class given is in vivo, mouse (male NMRI). On the procedure: 2. Preventing the U 46619-Induced Pulmonary Embolism
Male NMRI mice, with a body weight of 25 g. are used. The test substance is suspended in 1% methylcellulose and administered to the experimental animals with the help of a stomach tube. The provocation test consists of injecting the lethal dose (800-1000 μg/kg) of the thromboxane mimetic (U 46619 of the Upjohn Co.) rapidly into the tail vein. The duration of the specific antagonistic effect is tested by pretreating the animals with 25 mg or 1 mg/kg of the different test substances and injecting U 46619 after 4 hours. The survival rate indicates how many of the animals used have survived the injection of the thromboxane mimetic.

Test [2] deals with thrombocyte aggregation (TX antagonistic effect). Put plainly: TX antagonistic effect: inhibition of U 46619-induced thrombocyte aggregation in platelet-rich plasma of healthy blood donors (Born and Cross). Conditions: Erythrocyte, 5 min; U 46619-induced aggregation, human platelet-rich plasma, citrate, followed over 5 minutes; read-out: Human Erythrocytes IC50. The class given is cell-based. The source says:
1. TX Antagonistic Effect of Human Erythrocytes
The thrombocyte aggregation is investigated by the method of Born and Cross (J. Physiol. 168, 178 (1963) in platelet-rich plasma of healthy blood donors. To inhibit clotting, the blood is mixed with 3.2% citrate in a ratio by volume of 1:9.
To induce thrombocyte aggregation, U 46619 (Upjohn & Co., Kalamazoo, U.S.A.), which is a stable analog of the prostaglandin endoperoxide […], is used. U 46619 was characterized as a selective thromboxane mimetic (Coleman et al., Brit. J. Pharmacol. 68, 127 P., 1980).
The aggregation test is carried out in a 4-channel aggregometer (Profiler® of the Bio/Data Co., U.S.A.). The course of the aggregation is followed over a period of 5 minutes. At the end of the test, the degree of aggregation attained is printed out. These values, which are obtained in the presence of different concentrations of the substance to be tested, are used for the determination of the EC50 for the TX antagonistic effect. The effectiveness varies inversely with the EC50 value.

As for `Cc1ccc(S(=O)(=O)NCCc2ccc3oc(C(=O)O)cc3c2)cc1` [12 b], the “Survival Rate of Mouse 25 mg/kg, 4 h” value in test [1] was 4/5. Further, in test [2], the IC50 was determined as 1600 nM.

As for `O=C(O)c1cc2cc(CCNS(=O)(=O)c3ccc(Br)cc3)ccc2o1` [12 e], the “Survival Rate of Mouse 25 mg/kg, 4 h” value in test [1] is 5/5. In addition, in test [2], the concentration for half-maximal inhibition (IC50) amounted to 2700 nM.

For `Cc1c(C(=O)O)oc2ccc(CCNS(=O)(=O)c3ccc(Cl)cc3)cc12` [12 g], the “Survival Rate of Mouse 25 mg/kg, 4 h” value in test [1] is reported as 5/5. For the same molecule, in test [2], the half-maximal inhibitory concentration (IC50) came out at 1700 nM.

For the molecule `O=C(O)c1cc2cc(CCNS(=O)(=O)c3ccc(Cl)cc3)ccc2[nH]1` [12 l], the “Survival Rate of Mouse 1 mg/kg, 4 h” value in test [1] is given as 2/5. Moreover, the IC50 in test [2] turned out to be 1400 nM.

For `O=C(O)COc1ccc(CCNS(=O)(=O)c2ccccc2)cc1` [Comparison Compound, 4-[2-(benzenesulfonylamino)-ethyl]-7-phenoxyacetic acid, reference compound], the “Survival Rate of Mouse 25 mg/kg, 4 h” value in test [1] is 2/2. Further, the IC50 in test [2] was determined as 1850 nM.

With `O=C(O)c1cc2cc(CCNS(=O)(=O)c3ccc(Cl)cc3)ccc2o1` [Example 11, 5-[2-(4-Chlorobenzenesulphonamido)-ethyl]-benzo[b]-furan-2-carboxylic acid], in test [1], the “Survival Rate of Mouse 1 mg/kg, 4 h” value is recorded as 4/5 and the “Survival Rate of Mouse 25 mg/kg, 4 h” value is 10/10. For the same molecule, the IC50 in test [2] came to 750 nM.

In the case of `O=C(O)C1Cc2cc(CCNS(=O)(=O)c3ccccc3)ccc2O1` (stereo not drawn) [Example 13, 5-(2-Benzenesulphonamidoethyl)-2,3-dihydrobenzo[b]furan-2-carboxylic acid], the “Survival Rate of Mouse 25 mg/kg, 4 h” value in test [1] is on record as 5/5. In addition, the IC50 in test [2] was 1200 nM.
